# Measured values taken from PubChem BioAssay (NCI).
#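 Test compounds were applied to cells in 96-well plates for 48 hours at 5 doses. GI50 = concentration required for 50% inhibition of growth. TGI denotes the concentration required for complete inhibition of growth.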
# Assays:
# Experiment in all cases: NCI anticancer screen, dose series, 48 h
# DU-145 prostate = tested on: DU-145 prostate
# SF-268 CNS = tested on: SF-268 CNS
# HS 578T breast = tested on: HS 578T breast
# NCI/ADR-RES ovarian = tested on: NCI/ADR-RES ovarian
# EKVX NSCLC = tested on: EKVX NSCLC
# MDA-N = tested on: MDA-N
# SNB-75 CNS = tested on: SNB-75 CNS
# OVCAR-4 ovarian = tested on: OVCAR-4 ovarian
# MDA-MB-231 breast = tested on: MDA-MB-231 breast
# HT29 colon = tested on: HT29 colon
SMILES,TGI (DU-145 prostate) [µM],TGI (SF-268 CNS) [µM],TGI (HS 578T breast) [µM],TGI (NCI/ADR-RES ovarian) [µM],TGI (EKVX NSCLC) [µM],TGI (MDA-N) [µM],TGI (SNB-75 CNS) [µM],TGI (OVCAR-4 ovarian) [µM],TGI (MDA-MB-231 breast) [µM],TGI (HT29 colon) [µM],GI50 (HS 578T breast) [µM]
COC(=O)c1sc2c(Cl)c(Cl)sc2c1Cl,> 100,> 100,> 100,> 100,> 100,> 100,> 100,> 100,> 100,> 100,–
CC1(c2ccc(Cl)cc2)c2ccccc2C(=O)N1CCCN1C(=O)c2ccccc2C1=O (stereo unspecified),> 100,> 100,> 100,76.1,7.25,> 100,> 100,> 100,> 100,> 100,–
CC(=O)N1CN2C(=O)CCC2c2cc(C)ccc21 (stereo unspecified),> 100,> 100,> 100,> 100,> 100,> 100,> 100,> 100,> 100,> 100,–
CC(C)(C)c1cc(C(C)(C)C)c2sc(=O)oc2c1O,32.8,26.4,31.4,30.1,29.2,29.9,27.1,27.6,33.4,33.2,–
CCOc1ccc(Nc2nc(N)nc(N)c2N=O)cc1,> 100,> 100,> 100,> 100,> 100,> 100,91.7,> 100,> 100,> 100,–
CC1=NN(c2cc(Cl)c(S(=O)(=O)O)cc2Cl)C2(C1)C(Cl)C(=O)N2c1nc2ccccc2s1 (stereo unspecified),> 100,> 100,> 100,> 100,> 100,> 100,> 100,> 100,> 100,> 100,–
CCOC(=O)c1c(-c2ccc(Cl)cc2)c(C#N)c(=S)n(C2OC(COC(C)=O)C(OC(C)=O)C(OC(C)=O)C2OC(C)=O)c1C (stereo unspecified),> 100,> 100,> 100,> 100,> 100,> 100,99,> 100,> 100,> 100,> 100
O=C(CCCCCCCCC(=O)N1C(=O)CC(=O)N(c2ccc(Cl)cc2)C1=S)N1C(=O)CC(=O)N(c2ccc(Cl)cc2)C1=S,> 100,> 100,> 100,> 100,> 100,> 100,> 100,> 100,> 100,> 100,–
CN=C1C=C(/N=C2/C=C(N/C(=C\C#N)C(C)(C)O)OC2(C)C)OC1(C)C,> 100,> 100,> 100,> 62.6,> 100,> 100,> 64,> 100,> 100,> 100,–
CN(CC(=O)O)c1ncc2c(n1)-c1ccccc1CC2,> 100,> 100,> 100,> 100,> 100,> 100,> 100,> 100,> 100,> 100,–
CCOC(=O)C(NC(=O)c1ccccc1)(Nc1ccc(S(=O)(=O)Nc2cc(C)on2)cc1)C(F)(F)F (stereo unspecified),> 100,> 100,> 100,> 100,> 100,> 100,> 100,> 10,> 100,> 100,–
CCOC(=O)/C=C(/OCC)[C@@H]1C(C(=O)c2ccc(Cl)cc2)[C@@H]1/C(=C\C(=O)OCC)OCC (stereo partly specified),> 100,> 100,> 100,> 34,> 100,> 100,> 100,> 100,> 100,> 100,–
CC[P+](c1ccccc1)(N(C)C)N(C)C,> 100,> 100,> 100,> 100,> 100,> 100,> 100,> 100,> 100,> 100,–
NCC1OC(OC2C(N)CC(N)C(O)C2OC2OC(CO)C(O)C2O)C(N)C(O)C1O (stereo unspecified),> 100,> 100,> 100,> 100,> 100,> 100,> 100,> 100,> 100,> 100,–
C=C(CCC(=O)N(CCc1c[nH]c2ccccc12)C(=O)c1ccccc1CSCC)C(=O)OC,> 100,> 100,> 100,> 100,> 100,> 100,> 100,> 100,> 100,> 100,–
Clc1ccc(-c2nn3c(COc4ccc(OCc5nnc6sc(-c7ccc(Cl)cc7)nn56)c(Cl)c4)nnc3s2)cc1,> 100,35.6,> 100,> 100,> 100,67.2,29.8,> 100,> 100,36.7,–
CC1CC[C@@]2(OC1)OC1C[C@H]3[C@@H]4CC=C5C[C@@H](OC6OC(CO)C(OC7OC(CO)C(O)C(O)C7O)C(O)C6OC6OC(C)C(O)C(O)C6O)CC[C@]5(C)[C@H]4CC[C@]3(C)C1[C@@H]2C (stereo partly specified),0.919,1.2,1.57,5.71,1.13,2.34,5.47,5.03,0.918,0.951,–
Cc1c(-c2ccccc2)oc(=O)c2ccccc12,> 100,45.1,43.1,75.4,60.9,59.3,31.1,71.4,36.5,34.6,–
c1csc(-c2cc(-c3ccsc3)cs2)c1,> 100,> 100,> 100,> 100,> 100,> 100,> 100,> 100,> 100,> 100,–
CC(C)(C)OC(=O)N1CCC2(CC1)C(=O)NCN2c1ccccc1,> 100,> 100,> 100,> 100,> 100,> 100,> 100,> 100,> 100,> 100,–
CCOC1OC(C)(C=C(C#N)C#N)CCC1C (stereo unspecified),> 100,> 100,> 89.1,> 88.7,> 100,> 100,> 100,> 100,> 100,> 93.9,–
Nc1c(-c2ccccc2)c2ccc([N+](=O)[O-])cc2c(=O)n1-c1cccc(C(=O)O)c1,> 100,> 100,> 100,> 100,> 100,> 100,> 100,> 100,> 100,> 100,–
C[N+](C)([O-])C12CC3CC(CC(C3)C1)C2,> 100,> 100,> 100,> 100,74.3,> 100,> 100,> 100,> 100,> 100,–
Cc1c(C)c2c(c(N)c1C#N)C(=O)N(NC(=S)Nc1ccccc1)C2=O,> 100,> 100,> 100,> 100,> 100,> 100,> 100,> 100,> 100,> 100,–
CCCCCCCCCCCCCCCC[N+](C)(C)CCl,17.2,9.38,5.26,49,22.8,15.4,5.18,8.44,4.32,3.82,–
Cc1cc(C)nc(NS(=O)(=O)c2ccc(NC(=O)c3ccc4nc5ccccc5c(Nc5ccc(S(=O)(=O)N=C(N)N)cc5)c4c3)cc2)n1,> 100,> 100,> 100,> 100,> 100,> 100,> 100,> 100,> 100,> 100,–
COc1cc2ccc(C(C)NCC#N)cc2cc1OC (stereo unspecified),> 100,> 100,> 100,> 100,> 100,> 100,> 100,> 100,> 100,> 100,–
